Results as given in ChEMBL document CHEMBL5053507, “Oxadiazepinone HBV capsid assembly modulators” (Bioorg Med Chem Lett, 2021).
Values after ≈ are worked out from the molar mass of the structure shown. Values belong to the compound of their own block, whether it stands above or below them.

What was measured:
[1] = Metabolic stability in human liver microsomes assessed as intrinsic clearance; format: ADME, Microsome; conditions: read-out: CLH
[2] = Thermodynamic solubility of the compound at pH 7; format: physicochemical; conditions: buffer, read-out: Therm_solubility
[3] = Volume of distribution at steady state in CD1 mouse at 2 mg/kg, iv; format: ADME, organism-based; conditions: in vivo, read-out: Vdss
[4] = Clearance in CD1 mouse at 2 mg/kg, iv; format: ADME, organism-based; conditions: in vivo
[5] = Clearance in Sprague-Dawley rat at 0.6 mg/kg, iv; format: ADME, organism-based; conditions: in vivo
[6] = Half life in CD1 mouse at 2 mg/kg, iv; format: ADME, organism-based; conditions: in vivo
[7] = Volume of distribution at steady state in Sprague-Dawley rat at 0.6 mg/kg, iv; format: ADME, organism-based; conditions: in vivo, read-out: Vdss
[8] = Half life in Sprague-Dawley rat at 0.6 mg/kg, iv; format: ADME, organism-based; conditions: in vivo
[9] = Clearance in CD1 mouse at 10 mg/kg, po or 2.5 mg/kg, iv relative to liver blood flow; format: ADME, organism-based; conditions: in vivo
[10] = Cmax in Sprague-Dawley rat at 5 mg/kg, po; format: ADME, organism-based; design: dose 5 mg/kg, route po; conditions: in vivo
[11] = Oral bioavailability in Sprague-Dawley rat at 5 mg/kg; format: ADME, organism-based; conditions: in vivo
[12] = Oral bioavailability in Mongrel dog at 2.5 mg/kg; format: ADME, organism-based, Canis lupus familiaris; conditions: in vivo
[13] = Volume of distribution at steady state in Sprague-Dawley rat at 5 mg/kg, po or 1.25 mg/kg, iv; format: ADME, organism-based; conditions: in vivo
[14] = Clearance in Mongrel dog at 2.5 mg/kg, po or 1 mg/kg, iv relative to liver blood flow; format: ADME, organism-based, Canis lupus familiaris; conditions: in vivo
[15] = AUC (0 to infinity) in CD1 mouse at 10 mg/kg, po; format: ADME, organism-based; design: time infinity, dose 10 mg/kg, route po; conditions: in vivo
[16] = Cmax in Mongrel dog at 2.5 mg/kg, po; format: ADME, organism-based, Canis lupus familiaris; design: dose 2.5 mg/kg, route po; conditions: in vivo
[17] = Tmax in Mongrel dog at 2.5 mg/kg, po; format: ADME, organism-based, Canis lupus familiaris; conditions: in vivo
[18] = Clearance in Sprague-Dawley rat at 5 mg/kg, po or 1.25 mg/kg, iv relative to liver blood flow; format: ADME, organism-based; conditions: in vivo
[19] = AUC (0 to infinity) in Sprague-Dawley rat at 5 mg/kg, po; format: ADME, organism-based; design: time infinity, dose 5 mg/kg, route po; conditions: in vivo
[20] = Half life in Mongrel dog at 2.5 mg/kg, po or 1 mg/kg, iv; format: ADME, organism-based, Canis lupus familiaris; conditions: in vivo
[21] = molecular target: Core antigen (Hepatitis B virus) (UniProt Q03732); experiment: Modulation of capsid assembly in HBV infected in human HepG2.2.15 cells assessed as fold shift in inhibition of viral DNA replication in presence of 40% normal human serum incubated for 3 days followed by replacement with fresh medium containing compound and measured after 3 days by QuantiGene assay; format: cell-based; conditions: time 6.0 day
Sequence of Core antigen (Hepatitis B virus) (Q03732 as listed by the source): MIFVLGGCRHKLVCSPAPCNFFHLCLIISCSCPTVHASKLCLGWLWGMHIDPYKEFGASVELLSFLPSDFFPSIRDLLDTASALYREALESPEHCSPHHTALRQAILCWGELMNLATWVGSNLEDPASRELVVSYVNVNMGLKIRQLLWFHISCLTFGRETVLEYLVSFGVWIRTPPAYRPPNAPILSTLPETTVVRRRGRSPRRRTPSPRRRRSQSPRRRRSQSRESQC

[22] = Cmax in CD1 mouse at 10 mg/kg, po; format: ADME, organism-based; design: dose 10 mg/kg, route po; conditions: in vivo
[23] = AUC (0 to infinity) in Mongrel dog at 2.5 mg/kg, po; format: ADME, organism-based, Canis lupus familiaris; design: time infinity, dose 2.5 mg/kg, route po; conditions: in vivo
[24] = Half life in Sprague-Dawley rat at 5 mg/kg, po or 1.25 mg/kg, iv; format: ADME, organism-based; conditions: in vivo
[25] = Volume of distribution at steady state in Mongrel dog at 2.5 mg/kg, po or 1 mg/kg, iv; format: ADME, organism-based, Canis lupus familiaris; conditions: in vivo
[26] = Volume of distribution at steady state in CD1 mouse at 10 mg/kg, po or 2.5 mg/kg, iv; format: ADME, organism-based; conditions: in vivo
[27] = Tmax in CD1 mouse at 10 mg/kg, po; format: ADME, organism-based; conditions: in vivo
[28] = Tmax in Sprague-Dawley rat at 5 mg/kg, po; format: ADME, organism-based; conditions: in vivo
Cytochrome P450 [29] = experiment: Inhibition of CYP (unknown origin); format: ADME, protein assay; conditions: human
Cytochrome P450 [30] = experiment: Induction of CYP (unknown origin); format: ADME, protein assay; conditions: human
[31] = Oral bioavailability in CD1 mouse at 10 mg/kg; format: ADME, organism-based; conditions: in vivo
[32] = Half life in CD1 mouse at 10 mg/kg, po or 2.5 mg/kg, iv; format: ADME, organism-based; conditions: in vivo
[33] = Ratio of AUC (0 to 24 hrs) in liver to plasma in Sprague-Dawley rat at 5 mg/kg, po or 1.25 mg/kg, iv; format: ADME, organism-based; conditions: read-out: Ratio AUC
[34] = Solubility of the compound; format: physicochemical

Compound: C[C@@H]1Cc2nn3c(c2CN1C(=O)Nc1ccc(F)c(C#N)c1)C(=O)N(C)O[C@@H](CO)C3
CLint scaled [1]: < 5 mL/min/kg
Vd [3]: 4 L/kg
clearance [4]: 96 mL/min/kg
solubility thermodynamic [2]: > 200 µM
clearance [5]: 66 mL/min/kg
half-life [6]: 1.2 h
Vd [7]: 1.9 L/kg
half-life [8]: 0.5 h

Compound: C[C@@H]1Cc2nn3c(c2CN1C(=O)Nc1ccc(F)c(C#N)c1)C(=O)N(C)O[C@@H](CF)C3
CLH [9]: 21%
CLint scaled [1]: < 5 mL/min/kg
Cmax [10]: 20.1 ng/mL
bioavailability [11]: 7.4%
bioavailability [12]: 79%
Vdss [13]: 2.5 L/kg
CLH [14]: 11%
AUC(0-inf) [15]: 4340 ng·h/mL
Cmax [16]: 1310 ng/mL
Tmax [17]: 1 h
solubility thermodynamic [2]: 63 µM (≈ 27.1 µg/mL)
CLH [18]: 93%
AUC(0-inf) [19]: 71.8 ng·h/mL
half-life [20]: 5.4 h
fold change (FC) [21]: 2
Cmax [22]: 1420 ng/mL
AUC(0-inf) [23]: 9550 ng·h/mL
t1/2 ([24]; po, 5 mg/kg): 0.4 h
Vdss [25]: 1.5 L/kg
Vdss [26]: 6.3 L/kg
Tmax [27]: 0.4 h
Tmax ([28]; po, 5 mg/kg): 0.5 h
inhibition (INH) (Cytochrome P450 [29]): Not Active
Activity (Cytochrome P450 [30]): Not Active
bioavailability [31]: 66%
half-life [32]: 7.9 h

Compound: CN1OC(CO)Cn2nc3c(c2C1=O)CN(C(=O)Nc1ccc(F)c(Cl)c1)CC3 (racemic)
CLint scaled [1]: 8 mL/min/kg
solubility thermodynamic [2]: 183 µM (≈ 77.6 µg/mL)

Compound: C[C@@H]1Cc2nn3c(c2CN1C(=O)Nc1ccc(F)c(Cl)c1)C(=O)N(C)O[C@@H](CO)C3
CLint scaled [1]: 11 mL/min/kg
solubility thermodynamic [2]: 183 µM (≈ 80.1 µg/mL)

Compound: C[C@@H]1Cc2nn3c(c2CN1C(=O)Nc1ccc(F)c(C#N)c1)C(=O)N(C)O[C@@H](COCC(F)F)C3
CLint scaled [1]: < 5 mL/min/kg
Cmax ([10]; Sprague-Dawley, read-out: Cmax): 533 ng/mL
bioavailability [11]: 71%
bioavailability [12]: 70%
Vdss [13]: 2 L/kg
CLH [14]: 9%
Cmax [16]: 1170 ng/mL
Tmax [17]: 0.75 h
solubility thermodynamic [2]: 22 µM (≈ 10.8 µg/mL)
Kp [33]: 3.8
CLH [18]: 20%
AUC(0-inf) [19]: 3840 ng·h/mL
half-life [20]: 5.6 h
AUC(0-inf) [23]: 10600 ng·h/mL
half-life ([24]; Sprague-Dawley): 1.8 h
Vdss [25]: 1.2 L/kg
Tmax ([28]; Sprague-Dawley, read-out: Tmax): 1 h

Compound: C[C@@H]1Cc2nn3c(c2CN1C(=O)Nc1ccc(F)c(Cl)c1)C(=O)N(C)O[C@@H](CN(C)C)C3
CLint scaled [1]: 19 mL/min/kg
solubility thermodynamic [2]: 176 µM (≈ 81.8 µg/mL)

Compound: C[C@H]1Cc2[nH]nc(-c3cscn3)c2CN1C(=O)Nc1ccc(F)c(C#N)c1
solubility [34]: 45 µM (≈ 17.2 µg/mL)

Compound: C[C@@H]1Cc2nn3c(c2CN1C(=O)Nc1ccc(F)c(C(F)(F)F)c1)C(=O)N(C)O[C@@H](CO)C3
CLint scaled [1]: 7.2 mL/min/kg
Vd [3]: 5.3 L/kg
clearance [4]: 58 mL/min/kg
solubility thermodynamic [2]: 172 µM (≈ 81.1 µg/mL)
clearance [5]: 24 mL/min/kg
half-life [6]: 1.6 h
Vd [7]: 2.3 L/kg
half-life [8]: 1.4 h

Compound: Cc1cc(NC(=O)N2Cc3c(nn4c3C(=O)N(C)O[C@@H](CO)C4)C[C@H]2C)ccc1F
CLint scaled [1]: < 5 mL/min/kg
Vd [3]: 2.2 L/kg
clearance [4]: 39 mL/min/kg
solubility thermodynamic [2]: > 200 µM
clearance [5]: 47 mL/min/kg
half-life [6]: 1.5 h
Vd [7]: 2.1 L/kg
half-life [8]: 0.7 h

Compound: C[C@@H]1Cc2nn3c(c2CN1C(=O)Nc1ccc(F)c(C#N)c1)C(=O)N(C)O[C@@H](C(=O)N(C)CC(F)F)C3
CLint scaled [1]: 14 mL/min/kg
solubility thermodynamic [2]: 45 µM (≈ 23.4 µg/mL)

Compound: C[C@@H]1Cc2nn3c(c2CN1C(=O)Nc1ccc(F)c(C#N)c1)C(=O)N(C)OCC3
CLint scaled [1]: < 5 mL/min/kg
solubility thermodynamic [2]: 80 µM (≈ 31.9 µg/mL)

Further lines, results first:

CLint scaled [1]: 8 mL/min/kg
solubility thermodynamic [2]: 183 µM (≈ 74.3 µg/mL)
Compound: CN(OC1COC1)C(=O)c1n[nH]c2c1CN(C(=O)Nc1cccc(Cl)c1)CC2

CLint scaled [1]: 214 mL/min/kg
Compound: CCCC(=O)c1n[nH]c2c1CN(C(=O)Nc1cccc(Cl)c1)CC2

CLint scaled [1]: 192 mL/min/kg
Compound: O=C(Nc1cccc(Cl)c1)N1CCc2[nH]nc(-c3ccccc3)c2C1

CLint scaled [1]: 171 mL/min/kg
Compound: CCOC(=O)c1n[nH]c2c1CN(C(=O)Nc1cccc(Cl)c1)CC2

CLint scaled [1]: 65 mL/min/kg
Compound: CC(C)ON(C)C(=O)c1n[nH]c2c1CN(C(=O)Nc1cccc(Cl)c1)CC2

CLint scaled [1]: 31 mL/min/kg
solubility thermodynamic [2]: 161 µM (≈ 63.4 µg/mL)
Compound: CN(OCCO)C(=O)c1n[nH]c2c1CN(C(=O)Nc1cccc(Cl)c1)CC2

CLint scaled [1]: 33 mL/min/kg
Compound: CON(C)C(=O)c1n[nH]c2c1CN(C(=O)Nc1cccc(Cl)c1)CC2

CLint scaled [1]: 55 mL/min/kg
Compound: CCON(C)C(=O)c1n[nH]c2c1CN(C(=O)Nc1cccc(Cl)c1)CC2

CLint scaled [1]: 87 mL/min/kg
Compound: CCN(C)C(=O)c1n[nH]c2c1CN(C(=O)Nc1cccc(Cl)c1)CC2

CLint scaled [1]: 38 mL/min/kg
Compound: O=C(Nc1cccc(Cl)c1)N1CCc2[nH]nc(C(=O)N3CCCCO3)c2C1

CLint scaled [1]: 7 mL/min/kg
Compound: CN1O[C@@H](CO)Cn2nc3c(c2C1=O)CN(C(=O)Nc1ccc(F)c(Cl)c1)CC3

CLint scaled [1]: 9 mL/min/kg
Compound: CN1O[C@H](CO)Cn2nc3c(c2C1=O)CN(C(=O)Nc1ccc(F)c(Cl)c1)CC3
